For data set [1], the system named is conversion of Amadori compounds to post Amadori advanced glycation endproducts (bovine serum albumin glycated by ribose). The data set is described as follows: Interrupted glycation: post-Amadori AGE formation of bovine serum albumin by ribose. Type of data set: biochemical. The procedure: FIG. 2 is graph depicting the effect of dipyridoxylamine (BST-4500) on post-Amadori AGE formation during interrupted glycation of bovine serum albumin by ribose. Modification with ribose was done at 37° C. in 0.2 M phosphate buffer of pH 7.5 containing 0.02% sodium azide. The solutions were kept in capped tubes and opened only to remove timed aliquots that were immediately frozen for later carrying out the various analyses. “Interrupted glycation” experiments were carried out by first incubating protein with the ribose at 37° C. for 8 or 24 h, followed by immediate and extensive dialysis against frequent cold buffer changes at 4° C. The samples were then reincubated by quickly warming to 37° C. in the absence of external ribose. Aliquots were taken and frozen at various intervals for later analysis.
The interrupted glycation method for following post-Amadori kinetics of AGE formation allows for the rapid quantitative study of “late” stages of the glycation reaction. Importantly, this method allows for inhibition studies that are free of pathways of AGE formation which arise from glycoxidative products of free sugar or Schiff base (Namiki pathway).
In comparison, in a similar experiment, pyridoxamine inhibited the conversion of Amadori compounds to post Amadori advanced glycation endproducts with a half-maximal inhibitory concentration of approximately 3 mM. Thus, the post-Amadori-inhibitory activity of dipyridoxylaminc is approximately 750-fold greater than that of pyridoxamine.

The subject of data set [2] is normal human epidermal keratinocytes. The experiment in a line: Neutral red uptake bioassay using normal human epidermal keratinocytes. Type of data set: cell-based. As to conditions: for HuLC50: preliminarily estimated concentration for half-maximal toxicity, neutral red uptake, normal human epidermal keratinocytes. The procedure: A neutral red uptake bioassay using normal human epidermal keratinocytes was then conducted to preliminarily estimate the toxicity (HuLC50) of dipyridoxylamine relative to pyridoxamine. The bioassay was conducted according to standard protocols. (Borenfreund et al., J. Tissue Culture Methods 9:7-9, 1984; Heimann, et al., Cancer Res. 43:4856-4862, 1983; Shopsis et al., in “Alternative Methods in Toxicology,” Vol. 6, AM Goldberg (Ed), Mary Ann Liebert, Inc., N.Y., p. 253-263, 1988) The preliminarily estimated concentration for half-maximal toxicity was then divided by the half maximal inhibition of post-Amadori AGE formation to derive a therapeutic index ratio.

Setting [3] is: half maximal inhibition of post-Amadori AGE formation, read-out: IC50.

pIC50: −log10 of the molar value. Like-named read-outs stand apart in the source and are kept apart here.

As to `Cc1ncc(CO)c(CNCc2c(CO)cnc(C)c2O)c1O` [Dipyridoxylamine], the pIC50 in data set [1] (setting [3]) was 5.40; in data set [1] (interrupted glycation of BSA by ribose, 37° C., 0.2 M phosphate buffer pH 7.5, read-out: half-maximal inhibitory concentration for inhibiting the conversion of Amadori compounds to post Amadori advanced glycation endproducts), around 5.40. Further, the “post-Amadori-inhibitory activity relative to pyridoxamine” value in data set [1] (ratio of half-maximal inhibitory concentrations, versus pyridoxamine) is recorded as “approximately 750 fold”. The “toxicity relative to pyridoxamine” value in data set [2] (neutral red uptake bioassay, in words) is given as “mildly more toxic than pyridoxamine”. In addition, the HuLC50 in data set [2] is 1.8 mM.
On to `Cc1ncc(CO)c(CN)c1O` [Pyridoxamine, pyridoxamine, reference compound], for which the pIC50 in data set [1] (setting [3]) is 2.52; in data set [1] (in a similar experiment (interrupted glycation), read-out: half-maximal inhibitory concentration for inhibiting the conversion of Amadori compounds to post Amadori advanced glycation endproducts), around 2.52. Besides, the HuLC50 in data set [2] is 16.7 mM.

Values taken from patent US6342500B1, “Post-Amadori inhibitors of Advanced Glycation reactions” (Kansas University Medical Center, priority 1999, dated 2002).
